Tests used:
[1] = tested on: IL6; assay: PolyIC-induced IL6 release in NHEK keratinocytes, ELISA; format: cell-based, human; settings: NHEKs; for TLR3-activation induced augmented release of IL6: higher concentration
[2] = tested on: IL8; assay: UVB-induced IL8 mRNA expression in HaCaT keratinocytes, RT-qPCR; format: cell-based, human
[3] = tested on: human epidermal keratinocytes; assay: Summary score, UVB-induced inflammation model (solar dermatitis); format: cell-based
[4] = tested on: IL8; assay: UVB-induced IL8 release in HaCaT keratinocytes, ELISA; format: cell-based, human
[5] = tested on: IL6; assay: UVB-induced IL6 release in NHEK keratinocytes, ELISA; format: cell-based, human; settings: NHEKs; for UVB-upregulated expression of IL6: only at given (mostly lower) concentrations
[6] = tested on: IL8; assay: SEB/TSLP-induced IL8 release in HPV-Ker keratinocytes, ELISA; format: cell-based, human; settings: lower concentrations
[7] = tested on: HPV-Ker keratinocytes; assay: Summary score, SEB/TSLP-induced inflammation model (atopic dermatitis); format: cell-based, human; settings: for SCORE: sum of +1 anti-inflammatory, 0 no effect, −1 pro-inflammatory, Table 3
[8] = tested on: IL6; assay: UVB-induced IL6 mRNA expression in HaCaT keratinocytes, RT-qPCR; format: cell-based, human
[9] = tested on: IL6; assay: UVB-induced IL6 release in HaCaT keratinocytes, ELISA; format: cell-based, human
[10] = tested on: human epidermal keratinocytes; assay: Summary score, TLR3-induced inflammation model (microbial infection-induced dermatitis); format: cell-based
[11] = tested on: IL8; assay: PolyIC-induced IL8 release in NHEK keratinocytes, ELISA; format: cell-based, human; settings: NHEKs; for TLR3-activation induced augmented release of IL8: higher concentration
[12] = tested on: MCP-2; assay: MCP-2 ELISA in supernatants of poly-(I:C)-stimulated HaCaT cells; format: cell-based, human; settings: poly-(I:C)-stimulated HaCaT; for MCP-2 protein levels: all tested at 5, 10 and 20 μM, data not shown; for MCP-2 production: 6 h
[13] = tested on: ACD in 2,4-dinitrofluorobenzene (DNFB)-treated wild-type mice; settings: Karsak et al. 2007, cited from earlier work
[14] = tested on: IL6; assay: PolyIC-induced IL6 release in HPV-Ker keratinocytes, ELISA; format: cell-based, human; settings: HPV-KER cells
[15] = concentration not singled out (0.3 and 3 μM tested)
[16] = 0.3 μM, sum of +1 anti-inflammatory, 0 no effect, −1 pro-inflammatory, Table 2
[17] = 3 μM, sum of +1 anti-inflammatory, 0 no effect, −1 pro-inflammatory, Table 2
[18] = 0.3 μM, sum of +1 anti-inflammatory, 0 no effect, −1 pro-inflammatory, Table 1
[19] = 3 μM, sum of +1 anti-inflammatory, 0 no effect, −1 pro-inflammatory, Table 1

SMILES: C=C(C)[C@@H]1CCC(C)=C[C@H]1c1c(O)cc(CCC)cc1O [CBDV, Cannabidivarin]
- PolyIC-induced elevated release of IL6 [1, 15]: did not affect
- UVB-upregulated IL8 (RT-qPCR) ([2]; 3 μM): anti-inflammatory effects
- SCORE ([3]; 0.3 µM): 2
- SCORE ([3]; 3 µM): 5
- UVB-upregulated IL8 (ELISA) ([4]; 3 μM): anti-inflammatory effects
- UVB-upregulated expression of IL6 [5]: significantly suppress
- SEB/TSLP-induced up-regulation of IL8 release [6]: did not induce any significant effect
- SCORE ([7]; 0.3 μM): 0
- SCORE ([7]; 3 μM): 1
- Overall action in the SEB/TSLP-induced inflammation model ([7]; conclusion on Table 3): most effective
- UVB-upregulated IL6 (RT-qPCR) ([8]; 0.3 μM): anti-inflammatory effects
- UVB-upregulated IL6 (RT-qPCR) ([8]; 3 μM): anti-inflammatory effects
- UVB-upregulated IL6 (ELISA) ([9]; 3 μM): anti-inflammatory effects
- SCORE ([10]; 0.3 µM): 7
- SCORE ([10]; 3 µM): 5
- TLR3-activation induced augmented release of IL8 [11]: significantly further augmented

SMILES: CCCCCc1cc(O)c(C/C=C(\C)CCC=C(C)C)c(O)c1C(=O)O [CBGA, cannabigerolic acid]
- MCP-2 protein levels [12]: No effect

SMILES: CCCc1cc2c(c(O)c1C(=O)O)[C@@H]1C=C(C)CC[C@H]1C(C)(C)O2 [THCVA, tetrahydrocannabivarinic acid]
- MCP-2 protein levels [12]: No effect

SMILES: CCCCCc1cc(O)c2c(c1)OC(C)(CCC=C(C)C)C=C2 (centres unmarked) [CBC, cannabichromene]
- MCP-2 production ([12]; 5 μM): no effect
- MCP-2 production ([12]; 10 μM): no effect
- MCP-2 production ([12]; 20 μM): able to reduce

SMILES: CCCCCc1cc(O)c2c(c1)OC(C)(C)[C@@H]1CCC(C)=C[C@@H]21 [THC, tetrahydrocannabinol]
- ACD ([13]; subcutaneous and topical application): attenuated
- ear swelling ([13]; vs untreated mice): significantly decreased
- recruitment of Gr-1 positive granulocytes ([13]; vs untreated mice): reduced

SMILES: CCCc1cc(O)c(C/C=C(\C)CCC=C(C)C)c(O)c1 [CBGV, Cannabigervarin]
- TLR3-activation induced augmented release of IL6 [1]: significantly further augmented
- UVB-upregulated IL8 (RT-qPCR) ([2]; 0.3 μM): pro-inflammatory effects
- UVB-upregulated IL8 (RT-qPCR) ([2]; 3 μM): pro-inflammatory effects
- SCORE [3, 16]: −1
- SCORE [3, 17]: 2
- UVB-upregulated IL8 (ELISA) ([4]; 0.3 μM): pro-inflammatory effects
- UVB-upregulated IL8 (ELISA) ([4]; 3 μM): pro-inflammatory effects
- UVB-upregulated expression of IL6 [5]: significantly suppress
- SCORE ([7]; 0.3 μM): −1
- SCORE ([7]; 3 μM): 1
- UVB-upregulated IL6 (RT-qPCR) ([8]; 0.3 μM): anti-inflammatory effects
- UVB-upregulated IL6 (RT-qPCR) ([8]; 3 μM): anti-inflammatory effects
- UVB-upregulated IL6 (ELISA) ([9]; 0.3 μM): pro-inflammatory effects
- UVB-upregulated IL6 (ELISA) ([9]; 3 μM): anti-inflammatory effects
- PolyIC-induced IL6 levels ([14]; 0.3 μM): did not affect
- TLR3-activation induced augmented release of IL6 ([14]; 3 μM): significantly further augmented
- SCORE [10, 18]: 5
- SCORE [10, 19]: 5
- MCP-2 production ([12]; 10 μM): able to reduce
- PolyIC-induced elevated release of IL8 [11, 15]: did not affect

SMILES: CCCc1cc(O)c2c(c1)OC(C)(C)[C@@H]1CCC(C)=C[C@@H]21 [THCV, Tetrahydrocannabivarin]
- TLR3-activation induced augmented release of IL6 [1]: significantly further augmented
- PolyIC-induced IL6 level ([1]; low concentration): did not affect
- UVB-upregulated IL8 (RT-qPCR) ([2]; 0.3 μM): anti-inflammatory effects
- SCORE [3, 16]: 4
- SCORE [3, 17]: 0
- UVB-upregulated IL8 (ELISA) ([4]; 0.3 μM): anti-inflammatory effects
- UVB-upregulated IL8 (ELISA) ([4]; 3 μM): pro-inflammatory effects
- UVB-upregulated IL6 ([5]; higher concentrations): pro-inflammatory effects
- SCORE ([7]; 0.3 μM): −1
- SCORE ([7]; 3 μM): 1
- UVB-upregulated IL6 (RT-qPCR) ([8]; 3 μM): anti-inflammatory effects
- UVB-upregulated IL6 (ELISA) ([9]; 0.3 μM): anti-inflammatory effects
- UVB-upregulated IL6 (ELISA) ([9]; 3 μM): pro-inflammatory effects
- SCORE [10, 18]: 7
- SCORE [10, 19]: 7
- MCP-2 production ([12]; 5 μM): no effect
- MCP-2 production ([12]; 10 μM): able to reduce
- MCP-2 production ([12]; 20 μM): able to reduce
- TLR3-activation induced augmented release of IL8 [11]: did not affect
- PolyIC-induced elevated release of IL8 ([11]; low concentration): significantly suppressed

SMILES: C=C(C)[C@@H]1CCC(C)=C[C@H]1c1c(O)cc(CCC)c(C(=O)O)c1O [CBDVA, cannabidivarinic acid]
- MCP-2 protein levels [12]: No effect

Reference: patent US11413266B2, “Use of cannabinoids in the treatment of inflammatory skin diseases” (GW Pharma Limited, priority 2015, dated 2022)
